molecular target: T1, 5HTR2B (Homo sapiens, UniProt P41595); test: 5HTR2B antagonist activity, calcium mobilization assay in human Maverick/293 cells (serotonin as agonist); assay type: cell-based; conditions: intracellular calcium, emission 525 nm, read-out: Ca assay IC50
T1 construct: host or cells: human Maverick/293 cells
Summary of the method: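 Calcium mobilization read over 80 s at ex 485/em 525 nm after serotonin addition. Before that, 2 h serum-free starvation, 50 min dye loading at 37 °C, and 15-30 min antagonist exposure. IC50 from sigmoidal fit of peak % inhibition.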

T1 sequence (P41595 whole entry): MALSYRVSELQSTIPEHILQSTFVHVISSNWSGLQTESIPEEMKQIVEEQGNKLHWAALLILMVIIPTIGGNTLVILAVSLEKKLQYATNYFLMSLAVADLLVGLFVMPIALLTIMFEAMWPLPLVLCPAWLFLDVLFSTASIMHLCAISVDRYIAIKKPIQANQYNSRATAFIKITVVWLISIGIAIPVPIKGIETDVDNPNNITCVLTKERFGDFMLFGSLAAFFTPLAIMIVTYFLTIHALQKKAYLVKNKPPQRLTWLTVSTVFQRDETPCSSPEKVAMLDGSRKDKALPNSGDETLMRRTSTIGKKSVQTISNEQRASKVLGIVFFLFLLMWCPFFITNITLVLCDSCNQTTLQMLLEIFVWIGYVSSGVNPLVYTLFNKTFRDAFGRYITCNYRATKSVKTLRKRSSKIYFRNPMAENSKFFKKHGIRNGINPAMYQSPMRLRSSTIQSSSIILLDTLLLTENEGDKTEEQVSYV

Compared with `COc1ccc(NS(=O)(=O)[C@@H]2CCOC2)cc1C(=O)Nc1ccc(F)c(C)c1` (single isomer, unassigned) [Compound 202b, (R*)N-4-fluoro-3-methylphenyl)-2-methoxy-5-(tetrahydrofuran-3-sulfonamido)benzamide], `COc1ccc(N(C)S(=O)(=O)C2CCOC2)cc1C(=O)Nc1ccc(F)c(C)c1` (single isomer, unassigned) [Compound 204b, (S*)—N-(4-Fluoro-3-methylphenyl)-2-methoxy-5-(N-methyltetrahydrofuran-3-sulfonamido)benzamide] is 20-fold higher in IC50: 2.8 nM for the first, 56 nM for the second.

First: COc1ccc(S(=O)(=O)N[C@H]2CCOC2)cc1C(=O)Nc1cccc(F)c1F [Compound 113, (S)—N-(2,3-Difluorophenyl)-2-methoxy-5-(N-(tetrahydrofuran-3-yl)sulfamoyl) benzamide]
Second: COc1ccc(S(=O)(=O)N[C@H]2CCOC2)cc1C(=O)Nc1cccc(F)c1OC [Compound 134, (S)—N-(3-fluoro-2-methoxyphenyl)-2-methoxy-5-(N-(tetrahydrofuran-3-yl)sulfamoyl)benzamide]
The IC50 of the first is 34-fold higher: 17 nM for the first, 0.5 nM for the second. The second is the more potent here.

First: COc1ccc(S(=O)(=O)N[C@H]2CCOC2)cc1C(=O)Nc1cc(F)ccc1F [Compound 69, (S)—N-(2,5-Difluorophenyl)-2-methoxy-5-(N-(tetrahydrofuran-3-yl)sulfamoyl) benzamide]
Second: COc1ccc(S(=O)(=O)N[C@H]2CCOC2)cc1C(=O)Nc1ccc(F)c(Cl)c1F [Compound 77, (S)—N-(3-Chloro-2,4-difluorophenyl)-2-methoxy-5-(N-(tetrahydrofuran-3-yl)sulfamoyl)benzamide]
The IC50 of the first is 3.5-fold lower: 1.5 nM for the first, 5.3 nM for the second. The first is the more potent here.

`COCCOC[C@@H](C)NS(=O)(=O)c1ccc(OC)c(C(=O)Nc2ccc(F)cc2F)c1` [Compound 147b, (R)—N-(2,4-Difluorophenyl)-2-methoxy-5-(N-(1-(2-methoxyethoxy)propan-2-yl)sulfamoyl)benzamide] and `COC[C@H](C)NS(=O)(=O)c1ccc(OC)c(C(=O)Nc2ccc(F)cc2)c1` (single isomer, unassigned) [Compound 40a, (S*)—N-(4-Fluorophenyl)-2-methoxy-5-(N-(1-methoxypropan-2-yl)sulfamoyl) benzamide] are within 1.5-fold of each other in IC50: 2.1 nM for the first, 1.7 nM for the second.

Compared with `COc1ccc(S(=O)(=O)N[C@@H]2CC[C@H](O)C2)cc1C(=O)Nc1ccc(F)c(C(F)F)c1` (single isomer, unassigned) [Compound 33a, N-(3-(Difluoromethyl)-4-fluorophenyl)-5-(N-((cis)-3-hydroxycyclopentyl)sulfamoyl)-2-methoxybenzamide], `COc1ccc(S(=O)(=O)NC2CC[C@H](O)C2)cc1C(=O)Nc1ccc(F)cc1` (stereo partly shown) [Compound 45b] is 4.7-fold higher in IC50: 0.4 nM for the first, 1.9 nM for the second.

Compared with `COc1ccc(S(=O)(=O)N[C@H]2C[C@H](O)C2)cc1C(=O)Nc1ccc(F)cn1` [Compound 156], `COc1ccc(S(=O)(=O)N[C@H]2C[C@H](O)C2)cc1C(=O)Nc1ccc(F)c(C)c1` [Compound 6a, N-(4-Fluoro-3-methylphenyl)-5-(N-((trans)-3-hydroxycyclobutyl)sulfamoyl)-2-methoxybenzamide] is 8.8-fold lower in IC50: 159 nM for the first, 18 nM for the second.

Compared with `COc1ccc(S(=O)(=O)N[C@H]2CCOC2)cc1C(=O)Nc1ncc(F)cc1F` [Compound 118, (S)—N-(3,5-Difluoropyridin-2-yl)-2-methoxy-5-(N-(tetrahydrofuran-3-yl)sulfamoyl)benzamide], `[2H]C([2H])([2H])Oc1ccc(S(=O)(=O)N[C@H]2CCOC2)cc1C(=O)Nc1ncc(F)cc1F` [Compound 196, (S)—N-(3,5-difluoropyridin-2-yl)-2-(methoxy-d3)-5-(N-(tetrahydrofuran-3-yl)sulfamoyl)benzamide] is 2.8-fold higher in IC50: 6.7 nM for the first, 19 nM for the second. The first is the more potent here.

`COc1ccc(S(=O)(=O)NC2COC[C@H]2O)cc1C(=O)Nc1ccccc1Cl` (stereo in doubt) [Compound 56b, N-(2-Chlorophenyl)-5-(N-((cis)-4-hydroxytetrahydrofuran-3-yl)sulfamoyl)-2-methoxybenzamide] and `COc1ccc(S(=O)(=O)NC2CCC[C@@H]2O)cc1C(=O)Nc1ccccc1Cl` (stereo partly drawn) [Compound 61b, N-(2-Chlorophenyl)-5-(N-((trans)-2-hydroxycyclopentyl)sulfamoyl)-2-methoxy benzamide] are the same in IC50: 0.2 nM for the first, 0.2 nM for the second.

Going from `COc1ccc(S(=O)(=O)N[C@H](C)CO)cc1C(=O)Nc1ccc(F)cc1` [Compound 49b, (R)—N-(4-Fluorophenyl)-5-(N-(1-hydroxypropan-2-yl)sulfamoyl)-2-methoxybenzamide] to `COc1ccc(S(=O)(=O)N[C@H](C)C(N)=O)cc1C(=O)Nc1ccc(F)cc1` [Compound 46a, (R)-5-(N-(1-Amino-1-oxopropan-2-yl)sulfamoyl)-N-(4-fluorophenyl)-2-methoxybenzamide], the IC50 falls from 9 nM to 1.5 nM (6-fold).

Going from `COc1ccc(S(=O)(=O)N[C@H](C)CO)cc1C(=O)Nc1ccccc1Cl` [Compound 55b, (R)—N-(2-Chlorophenyl)-5-(N-(1-hydroxypropan-2-yl)sulfamoyl)-2-methoxy benzamide] to `COc1ccc(S(=O)(=O)NC2(C)COC2)cc1C(=O)Nc1ccccc1Cl` [Compound 58, N-(2-Chlorophenyl)-2-methoxy-5-(N-(3-methyloxetan-3-yl)sulfamoyl) benzamide], the IC50 rises from 0.1 nM to 0.2 nM (2-fold). The first is the more potent here.

Going from `COc1ccc(S(=O)(=O)N[C@H]2CCOC2)cc1C(=O)Nc1ccc(Cl)cc1` [Compound 108, (S)—N-(4-Chlorophenyl)-2-methoxy-5-(N-(tetrahydrofuran-3-yl)sulfamoyl) benzamide] to `COc1ccc(S(=O)(=O)N[C@H]2CCOC2)cc1C(=O)Nc1ccc(F)cc1` [Compound 122, (S)—N-(4-Fluorophenyl)-2-methoxy-5-(N-(tetrahydrofuran-3-yl)sulfamoyl) benzamide], the IC50 falls from 5.5 nM to 0.6 nM (9.2-fold). The second is the more potent here.

First: COc1ccc(S(=O)(=O)N[C@H]2C[C@H](O)C2)cc1C(=O)Nc1ccccc1Cl [Compound 154]
Second: COc1ccc(S(=O)(=O)NC2CC(C)C2)cc1C(=O)Nc1ccc(F)c(C)c1 (stereo not shown) [Compound 7, N-(4-Fluoro-3-methylphenyl)-2-methoxy-5-(N-(3-methylcyclobutyl)sulfamoyl) benzamide]
The IC50 of the first is 9-fold lower: 0.6 nM for the first, 5.4 nM for the second. The first is the more potent here.

Going from `COc1ccc(S(=O)(=O)NC2CCCOC2)cc1C(=O)Nc1ccc(F)c(C)n1` (single isomer, unassigned) [Compound 16b, (R*)—N-(5-Fluoro-6-methylpyridin-2-yl)-2-methoxy-5-(N-(tetrahydro-2H-pyran-3-yl)sulfamoyl)benzamide] to `COc1ccc(S(=O)(=O)NC2CCCC[C@@H]2O)cc1C(=O)Nc1ccc(F)c(C)n1` (stereo in doubt) [Compound 28a, N-(5-Fluoro-6-methylpyridin-2-yl)-5-(N-((trans)-2-hydroxycyclohexyl)sulfamoyl)-2-methoxybenzamide], the IC50 rises from 9.1 nM to 19 nM (2.1-fold). The first is the more potent here.

First: COc1ccc(S(=O)(=O)N(C)[C@H]2CCOC2)cc1C(=O)Nc1ccc(F)c(C)n1 [Compound 189, (S)—N-(5-fluoro-6-methylpyridin-2-yl)-2-methoxy-5-(N-methyl-N-(tetrahydrofuran-3-yl)sulfamoyl) benzamide]
Second: COc1ccc(S(=O)(=O)NC(C)C(F)(F)F)cc1C(=O)Nc1ccc(F)c(C)n1 (single isomer, unassigned) [Compound 29a, (S*)—N-(5-Fluoro-6-methylpyridin-2-yl)-2-methoxy-5-(N-(1,1,1-trifluoropropan-2-yl)sulfamoyl)benzamide]
The IC50 of the first is 4.7-fold higher: 14 nM for the first, 3 nM for the second. The second is the more potent here.

Reference: patent publication US10654837B2, “Sulphamoylaryl derivatives and use thereof as medicaments for the treatment of liver fibrosis” (Janssen Pharmaceutica NV, priority 2017, dated 2020)
